Like-named read-outs stand apart in the source and are kept apart here.
Tests used:
human D2L receptor = molecular target: T1, human D2L receptor (Homo sapiens, UniProt P14416); experiment: [3H]spiperone binding to cloned human D2L receptors in HEK 293 cell membranes
T1 construct: expressed in transfected cells; host or cells: HEK 293 cells, stably transfected (Watts and colleagues, Oregon Health Sciences University); membranes prepared from the cells
Method: (§1) The target compounds synthesized were assayed for differential CNS activity by binding studies employing cloned human receptors expressed in HEK cells. […] The compounds were evaluated for their binding at the D2 and D3 receptors.
(§2) Binding affinities of these novel compounds were assessed according to previously published procedures. V. J. Watts et al., EUR. J. PHARMACOL., 1993, 239,271; V. J. Watts et al., EUR. J. PHARMACOL., 1996, 50, 966. Human embryonic kidney (HEK) 293 cells were stably transfected with cDNA for the human D2L and D3 receptors by Watts and colleagues at Oregon Health Sciences University in accordance with published procedures; V. J. Watts, MOL. PHARMACOL, op. cit., and graciously shipped to the University of Illinois for receptor binding assays. Membranes were prepared from the cells as described previously, V. J. Watts et al., EUR. J. PHARMACOL., 1993, op. cit. […] (+)-Butaclamol (2 ,μM) was used to define nonspecific binding. Assays were terminated with a 24-pin Brandel harvester as described previously, M. E. A. Reith et al., BIOL. CHEM. 1986, 261, 7300. IC50 values were estimated by nonlinear regression analysis with the ALLFIT equation, and converted to inhibition constants (Ki) by the Cheng-Prusoff equation as in previous work, Reith et al., J. BIOL. CHEM., op. cit.

human D3 receptor = molecular target: T2, human D3 receptor (Homo sapiens, UniProt P35462); experiment: [3H]spiperone binding to cloned human D3 receptors in HEK 293 cell membranes; conditions: for D3 receptor activity compared with control, in words: displacing [3H]spiperone from D3 receptors in HEK cells, racemic compounds versus (+)-7-OH-DPAT; for D2L/D3L: ratio of Ki D2L to Ki D3; for Differential activity (D2L/D3) compared with control, in words: versus (+)-7-OH-DPAT control
T2 construct: expressed in transfected cells; host or cells: HEK 293 cells, stably transfected (Watts and colleagues, Oregon Health Sciences University); membranes prepared from the cells
Method: as §1, §2

[1] = cloned human D2L in HEK cells, 0.4 nM [3H]spiperone, 1 h, 30° C., no GTP, mean ± spread (n)

T1 sequence (P14416 whole entry): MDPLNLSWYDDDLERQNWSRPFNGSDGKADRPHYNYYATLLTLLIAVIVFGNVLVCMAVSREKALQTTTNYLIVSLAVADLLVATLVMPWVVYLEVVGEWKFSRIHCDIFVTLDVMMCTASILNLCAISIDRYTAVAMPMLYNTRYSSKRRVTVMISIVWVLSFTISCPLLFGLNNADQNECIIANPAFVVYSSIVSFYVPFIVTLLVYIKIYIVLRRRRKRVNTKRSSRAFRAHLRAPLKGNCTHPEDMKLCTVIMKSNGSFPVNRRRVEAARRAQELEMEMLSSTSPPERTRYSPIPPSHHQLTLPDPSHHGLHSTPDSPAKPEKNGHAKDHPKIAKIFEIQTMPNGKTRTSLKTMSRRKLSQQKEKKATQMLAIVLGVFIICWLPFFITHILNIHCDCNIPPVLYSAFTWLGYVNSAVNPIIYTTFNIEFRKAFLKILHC
T2 sequence (P35462 whole entry): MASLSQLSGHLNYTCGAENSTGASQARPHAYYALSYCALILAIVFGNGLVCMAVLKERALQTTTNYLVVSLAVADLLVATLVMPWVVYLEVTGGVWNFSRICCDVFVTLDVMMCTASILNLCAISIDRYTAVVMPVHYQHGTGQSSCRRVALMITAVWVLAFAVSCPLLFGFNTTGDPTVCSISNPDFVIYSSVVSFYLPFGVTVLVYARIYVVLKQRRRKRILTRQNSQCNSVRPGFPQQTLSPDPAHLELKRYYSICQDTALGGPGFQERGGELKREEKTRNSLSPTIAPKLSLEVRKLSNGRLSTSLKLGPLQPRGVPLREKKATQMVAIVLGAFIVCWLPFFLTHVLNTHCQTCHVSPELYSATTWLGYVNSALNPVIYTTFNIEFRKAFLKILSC

Ki (human D3 receptor; cloned human D3 in HEK cells, 0.4 nM [3H]spiperone, 1 h, 30° C., no GTP, mean ± spread (n)) [nM] | SMILES | Ki (human D2L receptor; [1]) [nM] | Ki (human D3 receptor) [nM] | D3 receptor activity compared with control, in words (human D3 receptor) | D2L/D3L (human D3 receptor) | Differential activity (D2L/D3) compared with control, in words (human D3 receptor) | Ki (human D2L receptor; read-out: D2L HEK Cells [^3H]spiperone, Ki, […] nM [3H]spiperone, 1 h, 30° C., no GTP, mean ± spread (n)) [nM] | Ki (human D3 receptor; read-out: D3 HEK Cells [^3H]spiperone, Ki, cloned human D3 in HEK cells, 0.4 nM [3H]spiperone, 1 h, 30° C., no GTP, mean ± spread (n)) [nM]
– | C#CCN(CCCC)C1CCc2ccc(O)cc2C1 (racemic) [Example 4, (R,S)-trans-7-Hydroxy-2-[N-propynyl-N-(butyl-amino]tetralin] | 534 ± 72 | 4.9 ± 1.2 | about as active as the (+) isomer | 108 | slightly greater activity differential | – | –
– | C#CCN(CC)C1CCc2ccc(O)cc2C1 (racemic) [Example 5, (R,S)-trans-7-Hydroxy-2-[N-propynyl-N-ethyl-amino]tetralin] | 1490 | 13.8 ± 2.8 | high activity, though not as high as the compound of Example 4 or the control | 108 | as high as the compound of Example 4 | – | –
– | C#CCN(CCc1ccc(F)cc1)C1CCc2ccc(O)cc2C1 (racemic) [Example 6, (R,S)-trans-7-Hydroxy-2-[N-propynyl-N-ethyl(4′-fluorophenyl)amino]tetralin] | 1610 | 14.5 ± 4.1 | – | 111 | about the same as the control | – | –
– | C#CCN(CCc1cccs1)C1CCc2ccc(O)cc2C1 (racemic) [Example 7, (R,S)-trans-7-Hydroxy-2-[N-propynyl-N-ethyl(thienyl)-amino]tetralin] | – | – | about the same as the control | 211 | more than double the activity differential of the control | 1700 | 8 ± 0.3
23.5 ± 4.7 | C#CCN(CCCC#N)C1CCc2ccc(O)cc2C1 (racemic) [Example 8, (R,S)-trans-7-Hydroxy-2-[N-propynyl-N-(3′-cyano-1′-propyl)amino]tetralin] | 8310 | – | about the same as the control | 353 | more than double the activity differential of the control | – | –

— patent US7049337B2 (Wayne State University, priority 2000, dated 2006)
